These results are taken from patent US20030040510A1, “Selective estrogen receptor modulators in combination with estrogens” (Endorecherche, Inc., priority 2000, published 2003).

Series [1] is described as follows: Concentration of EM-652 in the circulation, 6-month rat study. To be noted: intact rats, EM-652 0.5 mg/kg daily, 6-month study. It is filed as in vivo.
Another series has as its system ovariectomized rats. The series can be described thus: 5-diol alone or with Flutamide and/or EM-800 for 12 months in ovariectomized rats (bone mass, serum markers).
The test system of series [2] is bone metabolism in the rat. The series can be described thus: Biochemical parameters of bone metabolism (urine, serum) after DHEA and/or EM-800. It is filed as in vivo. To be noted: DHEA 10 mg, EM-800 75 μg. The source says:
Data are expressed as the means±SEM.**: P<0.01 experimental versus respective control.
It is particularly important to indicate that the combination of DHEA and EM-800 exerted unexpected beneficial effects on important biochemical parameters of bone metabolism. […] Moreover, no effect of DHEA could be detected on daily urinary calcium or phosphorus excretion (Luo et al., Endocrinology 138: 4435-4444, 1997). EM-800, decreased the urinary hydroxyproline/creatinine ratio by 48% while, similarly to DHEA, no effect of EM-800 was seen on urinary calcium or phosphorus excretion. EM-800, moreover, had no effect on serum alkaline phosphatase activity, a marker of bone formation while DHEA increased the value of the parameter by about 75% (Luo et al., Endocrinology 138: 4435-4444, 1997).

The test system of series [3] is bone metabolism in the rat. To be noted: cited from earlier work.
The test system of series [4] is uterus and vagina of ovariectomized nude mice. In words: Uterine, vaginal and body weight in the xenograft-bearing OVX nude mice (Example 1). To be noted: OVX + E1.
For series [5], the system named is breast and endometrial tissues. In words: Antiestrogens tested for SERM function and estrogenic activity in breast and endometrium.
Series [6] relates to rat mammary gland and endometrium. The series can be described thus: 12-week EM-800 treatment of intact rats: serum 17β-estradiol, mammary gland, endometrium. Type of series: in vivo. To be noted: 12 weeks. The procedure:
B. Animal treated with EM-800 (0.5 mg/kg, b w per day) for 12 weeks. […] Insert.
B. Animal treated with EM-800 (0.5 mg/kg, b w per day) during 12 weeks.

The test system of series [7] is ZR-75-1 breast tumor xenografts. In words: Growth of human ZR-75-1 breast tumor xenografts in OVX nude mice supplemented with estrone (DHEA, EM-800; Example 1). The note with it: OVX + E1; for Inhibition of E1-stimulated ZR-75-1 tumor size / Average tumor weight: 9.5 months. For orientation: A xenograft is tissue or cells of one species grown in another, often human tumour cells in immunodeficient mice.

The test system of series [8] is ovariectomized female rats. In words: Prevention of bone loss, body fat, serum cholesterol and ALP, 26-week treatment of OVX rats (Example 5A, experiment 2). It is filed as in vivo, Sprague-Dawley rats. The note with it: 26 weeks. The protocol:
Ten to twelve week-old female Sprague-Dawley rats (Crl:CD(SD)Br) (Charles River Laboratory, St-Constant, Canada) weighing approximately 220-270 g at start of treatment were used. The animals were acclimatized to the environmental conditions (temperature: 22±3° C.; humidity: 50±20%; 12-h light-12-h dark cycles, lights on at 07:15 h) for at least 1 week before starting the experiments. The animals were housed individually and were allowed free access to tap water and a pelleted certified rodent feed (Lab Diet 5002, Ralston Purina, St-Louis, Mo.). Experiments were conducted in an animal facility approved by the Canadian Council on Animal Care (CCAC) and the Association for Assessment and Accreditation of Laboratory Animal Care (AAALAC) in accordance with the CCAC Guide for Care and Use of Experimental Animals.
On day 1 of the study, the animals of the appropriate groups were bilaterally OVX under isoflurane anesthesia. Tested compounds were administered as suspension in 0.4% methylcellulose by oral gavage. Treatments were initiated on day 2 of the study and were performed once daily during 26 weeks. In both experiments, animals not receiving a test article were treated with the appropriate vehicle alone during the same period.
After 3 months (experiment 1) or 26 weeks (experiment 2) of treatment, individual rats under Isoflurane anesthesia had their whole body skeleton and lumbar spine scanned using dual energy x-ray absorptiometry (DEXA; QDR 4500A, Hologic, Waltham, Mass.) and a Regional High Resolution Scan software. The bone mineral density (BMD) of the lumbar spine (vertebrae L2 to L4) and the total body composition (fat percentage) were determined.
After 3 months (experiment 1) or 26 weeks (experiment 2) of treatment, blood samples were collected at the jugular vein from overnight fasted animals (under Isoflurane anesthesia). Samples were processed for serum preparation and frozen at −80° C. until assay. Serum cholesterol levels and alkaline phospatase activity (ALP) were determined using the Boehringer Mannheim Diagnostic Hitachi 911 Analyzer (Boehringer Mannheim Diagnostic Laboratory Systems).

Series [9] has as its system uterus and vagina of ovariectomized mice. The series can be described thus: Uterine and vaginal weight in ovariectomized mice treated or not with estrone (9 days oral). Type of series: in vivo, BALB/c mice. To be noted: for Inhibition of estrone-stimulated uterine weight / Inhibition of estrone-stimulated vaginal weight: 9 days, OVX mice + E1. The protocol:
(St-Constant, Quebec, Canada) and housed 5 per cage in a temperature (23±1° C.)—and light (12 h light/day, lights on at 7:15)—controlled environment. The mice were fed rodent chow and tap water ad libitum. […] Ten mice were kept intact as controls. […] Compounds were dissolved in ethanol (4% final concentration) and administered in 0.4% methylcellulose. Mice in the intact and OVX control groups received the vehicle alone (4% ETOH-0.4% methylcellulose) during the 9-day period. The animals were killed by exsanguination at the abdominal aorta on the 11th morning following ovariectomy.

In the next series the test system is MCF-7 cells. In words: Proliferation of human breast cancer MCF-7 cells (DNA content). Type of series: cell-based. To be noted: MCF-7, Experiment 1. The procedure:
The MCF-7 human breast adenocarcinoma cell line was derived from the pleural effusion of a patient. MCF-7 cells were used between passages 148 and 165 and subcultured weekly
Cells in their late logarithmic growth phase were harvested with 0.1% pancreatin (Sigma) and resuspended in the appropriate medium containing 50 ng bovine insulin/ml and 5% (v/v) FBS treated twice with dextran-coated charcoal to remove endogenous steroids. Cells were plated in 24-well Falcon plastic culture plates (2 cm^2/well) at the indicated density and allowed to adhere to the surface of the plates for 72 h. Thereafter, medium was replaced with fresh medium containing the indicated concentrations of compounds diluted from 1000×stock solutions in 99% redistilled ethanol in the presence or absence of E2. Control cells received only the ethanolic vehicle (0.1% EtOH,v/v). Cells were incubated for the specified time intervals with medium changes at 2-or 3-day intervals. Cell number was determined by measurement of DNA content.
Dose-response curves as well IC50 values were calculated using a weighted iterative nonlinear least-squares regression. All results are expressed as means±SEM.

Setting [10] is: EM-800 0.5 mg/kg per day, 0.5 mg/kg/day.
Setting [11] is: OVX rats, Premarin 0.25 mg/kg, SERMs 2.5 mg/kg oral.
Setting [12] is: OVX + ERA-923 3 μg (no estrone).
The mark [13] stands for this setting: OVX + ERA-923 30 μg (no estrone).
Setting [14] is: alone, absence of estrone, both doses used.

Molecules are shown by their SMILES. Several values for one entry are separate records, joined by “and”; a condition that tells them apart may be missing. Equal entries are not always repeated. Entries after “also recorded” stand apart in the source; their conditions may differ. Marks after values point to notes of the source that are not given here.

As for `CC1=C(c2ccc(O)cc2)[C@H](c2ccc(OCCN3CCCCC3)cc2)Oc2cc(O)ccc21` [EM-652], the concentration at 6 months in series [1] turned out to be 0.4 ng/mL.
In the case of `CC1=C(c2ccc(OC(=O)C(C)(C)C)cc2)[C@H](c2ccc(OCCN3CCCCC3)cc2)Oc2cc(OC(=O)C(C)(C)C)ccc21` [EM-800, (+)-7-pivaloyloxy-3-(4′-pivaloyloxyphenyl)-4-methyl-2-(4″-(2′″-piperidinoethoxy)phenyl)-2H-benzopyran], the “Additional stimulation of femoral BMD compared to 5-diol alone” value in the series with ovariectomized rats (EM-800 100 μg s.c. daily added to 5-diol) amounted to 28.4%. In addition, in the series on ovariectomized rats (added to 5-diol, proximal tibia), the “Effect on 5-diol action on bone volume, trabecular number and trabecular separation (histomorphometry)” value is reported as “further enhanced”. Also, the “Decrease of serum cholesterol” value in the series with ovariectomized rats (addition of EM-800 to 5-diol) was found to be 62%. In series [2], the “Serum tALP” value is listed as 114.11 ± 11.26 IU/L, the “Urine HP/Cr” value is 6.81 ± 0.84** μmol/mmol, the Urine calcium turned out to be 17.44 ± 4.5 μmol/24h/100g and the Urine phosphorus was 102.03 ± 25.13 μmol/24h/100g. Also, in [3], the “Decrease of urinary hydroxyproline/creatinine ratio” value is on record as 48%, the “Effect on daily urinary calcium or phosphorus excretion” value is listed as “no effect” and the “Increase of serum alkaline phosphatase activity” value is recorded as “had no effect”. In series [4] (EM-800 15 μg), the Uterine weight came out at 49 ± 3 mg and the Vaginal weight turned out to be 23 ± 1 mg. Also, in series [4] (EM-800 50 μg), the Uterine weight was 36 ± 2 mg and the Vaginal weight is 15 ± 1 mg. In addition, in [4] (EM-800 100 μg), the Uterine weight came to 32 ± 1 mg and the Vaginal weight stood at 11 ± 1 mg. Besides, the “Function as SERM” value in series [5] was “found to function as SERMs”. For the same molecule, the “Estrogenic activity in breast and endometrial tissues” value in series [5] (physiological or pharmacological concentrations) was “do not have any estrogenic activity”. The “Elevation of circulating 17β-estradiol vs intact animals” value in series [6] (EM-800 0.5 mg/kg orally daily) stood at 50%. Besides, in series [6] (setting [10]), the Endometrium histology entry is “luminal epithelium is markedly reduced in height; also recorded: marked atrophy of the endometrium” and the Mammary gland histology entry is “lobules (L) are reduced in size; also recorded: marked atrophy of the mammary gland”. Moreover, the “Circulating levels of 17β-estradiol” value in [6] (intact rats, EM-800 0.5 mg/kg orally daily) is 143.5 ± 7.8 pg/mL. For the same molecule, in [7] (EM-800 15 μg oral daily), the “Inhibition of E1-stimulated ZR-75-1 tumor size” value was 88% and 87.5%. In addition, in series [7] (EM-800 50 μg oral daily), the “Inhibition of E1-stimulated ZR-75-1 tumor size” value is 93% and 93.5%. The “Inhibition of E1-stimulated ZR-75-1 tumor size” value in series [7] (EM-800 100 μg oral daily) was determined as 94%. In series [7] (EM-800 15 μg), the “Category of response: Partial” value is 1 (5.9) Number and (%); the “Category of response: Stable” value is 5 (29.4) Number and (%); the Average tumor weight is 0.08 ± 0.03 g. Also, in [7] (EM-800 50 μg), the “Category of response: Complete” value is 4 (25.0) Number and (%); the “Category of response: Partial” value is 3 (18.8) Number and (%); the “Category of response: Progression” value was 4 (25.0) Number and (%); the “Category of response: Stable” value is 5 (31.2) Number and (%). The Average tumor weight in series [7] (EM-800 50 μg) was determined as 0.03 ± 0.01 g. Moreover, in [7] (EM-800 100 μg), the “Category of response: Complete” value is 8 (50.0) Number and (%); the “Category of response: Partial” value was 0 (0) Number and (%); the “Category of response: Progression” value was 5 (31.2) Number and (%); the “Category of response: Stable” value is 3 (18.8) Number and (%). Moreover, the Average tumor weight in [7] (EM-800 100 μg) was found to be 0.04 ± 0.03 g.
For `Cc1c(-c2ccc(O)cc2)n(Cc2ccc(OCCN3CCCCC3)cc2)c2ccc(O)cc12` [ERA-923], in series [8] (OVX rats), the “Reversal of the fat increase induced by estrogen deficiency” value was determined as 75%. For the same molecule, the “Serum ALP” value in series [8] (OVX rats) is 85 ± 6 IU. In addition, the Serum cholesterol in series [8] (OVX rats) was 1.15 ± 0.05 mmol/L. In [8] (OVX rats), this molecule showed a Total fat of 28.0 ± 1.8 %. For the same molecule, the “Lumbar spine BMD” value in series [8] (setting [11]) came to 0.2252 ± 0.0058 g/cm^2. The “Lumbar spine, Prevention of Bone Loss” value in series [8] (setting [11]) came to 49%. Besides, in series [8] (alone or in combination with Premarin), the “OVX-induced increase on serum cholesterol levels” value is “completely prevented”. Further, the “Inhibition of estrone-stimulated uterine weight” value worked out at 12% in series [9] (1 μg daily oral), 47% in series [9] (3 μg daily oral), 74% in series [9] (10 μg daily oral) and 94% in [9] (30 μg daily oral). Also, the “Inhibition of estrone-stimulated vaginal weight” value is 16% in series [9] (3 μg daily oral), 56% in series [9] (10 μg daily oral) and 93% in [9] (30 μg daily oral). The Uterine weight worked out at 105.5 ± 6.1 mg in [9] (OVX + E1 + ERA-923 1 μg); 69.7 ± 4.4 mg in [9] (OVX + E1 + ERA-923 3 μg); 42.1 ± 2.7 mg in [9] (OVX + E1 + ERA-923 10 μg); 21.7 ± 1.7 mg in series [9] (OVX + E1 + ERA-923 30 μg); 18.3 ± 1.2 mg in series [9] (setting [12]); 17.7 ± 1.6 mg in [9] (setting [13]). Moreover, the Vaginal weight in series [9] (OVX + E1 + ERA-923 1 μg) was determined as 54.2 ± 3.0 mg; in [9] (OVX + E1 + ERA-923 3 μg), 47.2 ± 1.6 mg; in [9] (OVX + E1 + ERA-923 10 μg) it was 31.1 ± 2.3 mg; in [9] (OVX + E1 + ERA-923 30 μg), 16.7 ± 1.8 mg; in [9] (setting [12]), 14.1 ± 1.2 mg; in series [9] (setting [13]), 15.3 ± 2.0 mg. Also, in series [9] (setting [14]), the “Stimulatory effect on uterine weight” value is reported as “no significant stimulatory effect”. The “Stimulatory effect on vaginal weight” value in [9] (setting [14]) is listed as “no significant stimulatory effect”. For the same molecule, the IC50 in the series on MCF-7 cells (Homo sapiens, MCF7, read-out: Inhibition of 1nM E2 stimulation of DNA by tested compounds IC50) was found to be 3.68 nM. Further, the “Maximal stimulation of DNA by tested compounds” value in the series on MCF-7 cells was “N.S”.

The IC50 is the point on the concentration scale where inhibition reaches its midpoint.
